# Molecular target: T1, Glutamate carboxypeptidase 2 [44-750] (Homo sapiens, UniProt Q04609)
# T1 construct: 44-750
# Assay: Determination of Inhibition Concentration Values (IC50)
# Conditions: pH 7.4; 37 °C
# Procedure: The inhibition concentration values of GCPII were determined using the radioenzymatic assay with [3H] NAAG (radiolabeled on the terminal glutamate). The enzyme was preincubated in the presence of increasing concentrations of inhibitors in reaction buffer. The reaction was initiated by adding the substrate to the reaction mixtures. After 20 min, the reaction was terminated, and the glutamate was separated from the reaction mixture by ion-exchange chromatography and quantified by liquid scintillation. Duplicate reactions were carried out for each experimental point. The IC50 values were calculated from plots of Vi/V0 (ratio of individual reaction rates to the rate of an uninhibited reaction) versus inhibitor concentration using the GraFit program (version 5.0.4, Erithacus Software Limited).
# T1 sequence (Q04609 44-750): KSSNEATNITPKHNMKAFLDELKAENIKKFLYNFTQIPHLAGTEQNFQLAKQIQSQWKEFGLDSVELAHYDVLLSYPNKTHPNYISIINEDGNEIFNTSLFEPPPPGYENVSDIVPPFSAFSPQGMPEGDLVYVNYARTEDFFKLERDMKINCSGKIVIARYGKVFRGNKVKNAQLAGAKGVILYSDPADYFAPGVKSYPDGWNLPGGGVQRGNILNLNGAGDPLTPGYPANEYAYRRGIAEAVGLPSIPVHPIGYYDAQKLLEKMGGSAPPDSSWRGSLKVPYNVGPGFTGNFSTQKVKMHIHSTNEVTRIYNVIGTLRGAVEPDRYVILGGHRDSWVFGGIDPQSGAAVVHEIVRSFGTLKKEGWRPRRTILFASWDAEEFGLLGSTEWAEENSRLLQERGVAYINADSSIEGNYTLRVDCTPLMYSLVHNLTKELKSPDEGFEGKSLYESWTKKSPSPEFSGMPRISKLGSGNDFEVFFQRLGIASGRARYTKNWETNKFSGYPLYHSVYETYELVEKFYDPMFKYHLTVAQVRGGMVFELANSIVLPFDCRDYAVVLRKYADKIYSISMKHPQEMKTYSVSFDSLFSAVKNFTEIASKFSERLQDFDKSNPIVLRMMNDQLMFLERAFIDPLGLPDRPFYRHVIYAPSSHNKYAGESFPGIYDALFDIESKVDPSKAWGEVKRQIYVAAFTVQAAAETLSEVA
smiles,measurement,value
Cc1onc(O)c1C[C@H](N)C(=O)O,IC50,> 10 mM
